From US12157713B2, “Conjugated oligoelectrolytes as antimicrobial agents” (Nanyang Technological University, priority 2018, dated 2024)
Values joined by “and” are separate entries in the source; they are usually repeats but may differ in a detail not shown here. Equal entries are not always repeated. Where two headings read alike, the source gives them in different places.

Legend:
[1] = system: Candida albicans ATCC 90028; assay: Single-dose growth inhibition, Ca; format: cell-based
Experimental: (§1) Growth inhibition of C. albicans was determined by measuring the absorbance at 530 nm (OD530), while the growth inhibition of C. neoformans was determined by measuring the difference in absorbance between 600 and 570 nm (OD600-570), after the addition of resazurin (0.001 wt. % final concentration) and incubation at 35° C. for additional 2 hrs. The absorbance was measured using a Biotek Synergy HTX plate reader. The relative growth inhibition was calculated for each well, relative to that determined from a negative control (media only) and positive control (bacteria without inhibitors) on the same plate as references. A single dose of 32 μg/mL of COE (final concentration) was used for each test.
(§2) Percentage growth inhibition of an individual sample was calculated based on growth in a reference well determined from negative controls (media only) and positive controls (bacterial/fungal media without inhibitors). Negative inhibition values indicate that the growth rate (or OD600) is higher compared to the reference growth (bacteria/fungi only, set to 0% inhibition). The growth rates for all bacteria and fungi may vary at −/+10%, which were within the reported normal distribution of bacterial/fungal growth. Any significant variations (or outliers/hits) were identified by the modified Z-Score, and the active compounds were selected by a combination of inhibition values and Z-Score.
(§3) A M(i) value of >|2.5| (absolute) would classify the sample as outliers or hits. Active samples were denoted as compounds with inhibition values equal to or above 80% and absolute Z-Score above |2.5| for either replicate (n=2 on different plates). Partial active samples were denoted as compounds with inhibition values from 50% to <80%, or absolute Z-Score below |2.5|.

[2] = system: Klebsiella pneumoniae MDR ATCC 700603; assay: Single-dose growth inhibition, Kp; format: cell-based
Experimental: (§4) Inhibition of bacterial growth was determined by measuring the absorbance at 600 nm (OD600), using a Tecan M1000 Pro monochromator plate reader. Growth inhibition was calculated for each well, relative to the reference growths determined from a negative control (media only) and positive control (bacteria without inhibitors) incubated in the same plate. A single dose of 32 μg/mL of COE (final concentration) was used for each test.
as §2, §3

[3] = system: Staphylococcus aureus MRSA ATCC 43300; assay: Single-dose growth inhibition, Sa; format: cell-based
Experimental: as §4, §2, §3

[4] = system: Acinetobacter baumannii ATCC 19606; assay: Single-dose growth inhibition, Ab; format: cell-based
Experimental: as §4, §2, §3

[5] = system: organism classes (Gram-negative, Gram-positive and fungi); assay: Single-dose screening summary by organism class; format: cell-based; details: 32 μg/mL; 0 = no activity
Experimental: as §2
Z-Score analysis was carried out to investigate outliers or hits among the samples. The Z-Score was calculated based on the sample population using a modified Z-Score method which accounts for possible skewed sample population. The modified method uses median and MAD ([…]) instead of average and standard deviation, and a scaling factor (Iglewicz, B. & Hoaglin, D. C. Volume 16: How to Detect and Handle Outliers. The ASQC Basic Reference in Quality Control: Statistical Techniques, 1993). The equation to calculate the modified Z-Score value is as follow: […]
as §3

[6] = system: Escherichia coli FDA control ATCC 25922; assay: Single-dose growth inhibition, Ec; format: cell-based
Experimental: as §4, §2, §3

[7] = system: Pseudomonas aeruginosa ATCC 27853; assay: Single-dose growth inhibition, Pa; format: cell-based
Experimental: as §4, §2, §3

E. coli K12 [8] = assay: MIC by broth microdilution against E. coli K12; format: cell-based; details: Escherichia coli, read-out: MIC against E. coli K12
Experimental: The respective minimum inhibition concentration (MIC) of each COE molecule was determined using a broth microdilution method. Briefly, COEs were diluted via a 2-fold dilution series in 100 μL of either Muller Hinton Broth (MHB) for E. coli and S. aureus or Brain Heart Infusion Broth (BHI) for E. faecalis in a 96-well plate to achieve the desired final concentration. Subsequently, each well was inoculated with 100 μL of 1×10^6 colony forming units (CFU) mL^−1 of the respective microorganism in MHB for E. coli or BHI for E. faecalis to achieve an inoculum density of 5×10^5 CFU mL^−1. The plates were then incubated at 37° C. with shaking (200 rpm) for 18 hrs. […] The results were obtained in triplicate.
The MIC values of COE-D4, COE-D6 and COE-D8 against the reference strain E. coli K12, pathogenic E. coli UT189, and the Gram positive pathogen Enterococcus faecalis OG1RF were determined using a broth microdilution method as described in the general method above. The MICs for E. coli K12 were determined to be 128, 16, and 4 μg mL^−1 for COE-D4, COE-D6, and COE-D8, respectively (FIG. 5a). […] This is not surprising as these two organisms differ in the capsular polysaccharides that they expressed, which are known to hinder the uptake of antimicrobials and mitigate their potency (M. A. Campos, et al., Infect. Immun. 2004, 72, 7107-7114). A K-type capsid comprising α2-8-linked sialic acid is excreted by UT189 and is known to be an important virulence factor for this organism (C. Whitfield, et al., Mol. Microbiol. 1999, 31, 1307-1319; G. G. Anderson, et al., Infect. Immun. 2010, 78, 963-975).

[9] = system: Cryptococcus neoformans var. grubii H99; ATCC 208821; assay: Single-dose growth inhibition, Cn; format: cell-based
Experimental: as §1, §2, §3

[10] = Solubility in PBS / aqueous solubility; format: physicochemical
E. coli K12 [11] = assay: Cellular uptake by E. coli K12 (absorption spectroscopy); format: cell-based, Escherichia coli; details: 10 μg/mL COE in PBS, OD=0.5, 2 hrs, room temperature
Experimental: The relative membrane affinity of COE-D4, COE-D6 and COE-D8 was estimated from the quantity taken up by cells using absorption spectroscopy. After cultures of E. coli K12 were grown in MHB at 37° C., the cells were harvested by centrifugation (6000 rpm, 5 min) and washed twice with PBS solution (pH=7.2). The cells were then resuspended in PBS and with the density adjusted to OD=1.0. Thereafter, 5 mL of this cell suspension was mixed with an equal volume of 20 μg/mL of COE in PBS to achieve a final concentration of 10 μg/mL (in triplicates). After exposure to COEs for 2 hrs at room temperature and with shaking (200 rpm), the cells were removed by centrifugation and the supernatant was collected for absorbance scans to quantify the remaining COE in the supernatant. The uptake quantity was estimated by comparing the absorbance of the supernatant to the corresponding control COE solution (i.e. 10 μg/mL in PBS). The procedure for uptake measurements at the lower temperature is similar to the one described above, but with the exposure to COEs and centrifugation occurring at 4° C. instead of room temperature
The effect of molecular structures of the COEs on relative membrane affinity, estimated from the amount taken up by E. coli K12, was measured by absorption spectroscopy (FIG. 8a-c). These experiments utilised cell suspensions (OD=0.5) incubated for 2 hrs with 10 μg mL^−1 of various COE. Cells were removed by centrifugation, and the amount of uncomplexed COE was determined from the optical absorption spectra. The longest molecule, COE-D8, achieved the highest uptake in bacteria (72%). In contrast, only 3% of COE-D4 was absorbed while the uptake for COE-D6 was 16% (Table 1a).
Parallel experiments were carried out at 4° C. […] As a result of the reduced fluidity of cellular membrane at lower temperature, the uptake decreased to around 1% for COE-D4, 5% for COE-D6, and 34% for COE-D8.

[12] = system: Pseudomonas aeruginosa (PAO1) biofilm; assay: Anti-biofilm assay (MBEC plate, crystal violet); format: cell-based; details: P. aeruginosa PAO1 biofilm, 1 hour challenge in M9GC
Experimental: Pseudomonas aeruginosa (PAO1) was grown in Luria-Bertani (LB) broth under shaking (200 rpm) at 37° C. for 16-18 hours. The overnight culture was diluted to 1:200 in M9GC media (M9 medium supplemented with glucose and casamino acids), and 200 μL of diluted culture was added to each well of MBEC plate (Innovotech, Canada). After incubating at 37° C. for 5 hours under shaking (200 rpm), biofilm was formed on the pegs of the MBEC plate. The pegs were then rinsed with 1× phosphate buffered saline (PBS) solution (200 μL per well), and exposed to a two-fold dilution series of COE in M9GC media (200 μL per well). The challenge plate was incubated at 37° C. for 1 hour under shaking (200 rpm), and then the pegs were washed using 200 μL PBS before being dipped into 180 μL 0.1 wt. % crystal violet aqueous solution. After incubating at room temperature for 15 minutes, the pegs were rinsed with PBS twice and transferred to a plate containing 200 μL absolute ethanol in each well for 15 minutes. The biofilm mass was quantified by measuring the absorption of crystal violet/ethanol solution at 550 nm. The minimum biofilm dispersal concentration (MBDC) values were determined as the lowest COE concentration at which biofilm attached on the peg was completely dispersed. The results were repeated in triplicate.

[13] = ATCC90028, 32 μg/mL single dose, n=2, read-out: Growth inhibition Ca
[14] = ATCC700603, 32 μg/mL single dose, n=2, read-out: Growth inhibition Kp
[15] = 32 μg/mL single dose, n=2, read-out: Growth inhibition Sa
[16] = ATCC19606, 32 μg/mL single dose, n=2, read-out: Growth inhibition Ab
[17] = ATCC25922, 32 μg/mL single dose, n=2, read-out: Growth inhibition Ec
[18] = ATCC27853, 32 μg/mL single dose, n=2, read-out: Growth inhibition Pa
[19] = K12, broth microdilution, MHB, 18 hrs
[20] = ATCC208821, 32 μg/mL single dose, n=2, read-out: Growth inhibition Cn
[21] = aqueous buffer, in PBS, read-out: Solubility in PBS

Compound	Activity: number of organism classes the compound has been found active against [5]	inhibition at 32 µg/mL [1, 13]	inhibition at 32 µg/mL [2, 14]	inhibition at 32 µg/mL [3, 15]	inhibition at 32 µg/mL [4, 16]	inhibition at 32 µg/mL [6, 17]	inhibition at 32 µg/mL [7, 18]	MIC (E. coli K12 [8]; [19])	inhibition at 32 µg/mL [9, 20]	further results
C[N+](C)(C)CC[N+](C)(C)CCCCOc1ccc(/C=C/c2ccc(OCCCC[N+](C)(C)CC[N+](C)(C)C)cc2)cc1 [COE-D42]	1	–	–	–	–	–	–	–	–	inhibition at 32 µg/mL ([1]; ATCC90028, read-out: Growth inhibition Ca): < 50%; inhibition at 32 µg/mL ([2]; ATCC700603, read-out: Growth inhibition Kp): < 50%; inhibition at 32 µg/mL ([3]; read-out: Growth inhibition Sa): > 80%; inhibition at 32 µg/mL ([4]; ATCC19606, read-out: Growth inhibition Ab): < 50%; inhibition at 32 µg/mL ([6]; ATCC25922, read-out: Growth inhibition Ec): < 50%; inhibition at 32 µg/mL ([7]; ATCC27853, read-out: Growth inhibition Pa): < 50%; MIC (E. coli K12 [8]; K12, 18 h): 128 µg/mL; inhibition at 32 µg/mL ([9]; ATCC208821, read-out: Growth inhibition Cn): < 50%
C[N+](C)(C)CC[N+](C)(C)CCCCCCOc1ccc(/C=C/c2ccc(OCCCCCC[N+](C)(C)CC[N+](C)(C)C)cc2)cc1 [COE-D62]	3	< 50%	> 80%	> 80%	> 80%	> 80%	< 50%	16 µg/mL	> 80%	–
C[N+](C)(C)CC[N+](C)(C)CCCCCCCCOc1ccc(/C=C/c2ccc(OCCCCCCCC[N+](C)(C)CC[N+](C)(C)C)cc2)cc1 [COE-D82]	3	> 80%	50 to 80%	> 80%	50 to 80%	> 80%	> 80%	32 µg/mL	> 80%	–
C[N+](C)(C)CCCCOc1ccc(/C=C/c2ccc(/C=C/c3ccc(OCCCC[N+](C)(C)C)cc3)cc2)cc1 [COE-T4]	2	> 80%	< 50%	> 80%	50 to 80%	< 50%	< 50%	32 µg/mL	> 80%	solubility [10, 21]: 210 µg/mL; solubility ([10]; aqueous solution, read-out: aqueous solubility): 210 µg/mL; Uptake by E. coli K12 (E. coli K12 [11]): 75±5% and 80%
C[N+](C)(C)CCCCCCOc1ccc(/C=C/c2ccc(/C=C/c3ccc(OCCCCCC[N+](C)(C)C)cc3)cc2)cc1 [COE-T6]	2	> 80%	< 50%	> 80%	< 50%	< 50%	< 50%	> 16 µg/mL	> 80%	solubility [10, 21]: 76 µg/mL; Uptake by E. coli K12 (E. coli K12 [11]): 89%
CN(C)CC[N+](C)(C)CCCCOc1ccc(/C=C/c2ccc(/C=C/c3ccc(OCCCC[N+](C)(C)CCN(C)C)cc3)cc2)cc1 [COE-T42N]	3	> 80%	< 50%	> 80%	> 80%	> 80%	< 50%	8 µg/mL	> 80%	–
CN(C)CC[N+](C)(C)CCCCCCOc1ccc(/C=C/c2ccc(/C=C/c3ccc(OCCCCCC[N+](C)(C)CCN(C)C)cc3)cc2)cc1 [COE-T62N]	2	> 80%	< 50%	> 80%	> 80%	< 50%	< 50%	64 µg/mL	> 80%	–
CC(C)(O/N=C(\C(=O)N[C@@H]1C(=O)N2C(C(=O)[O-])=C(C[n+]3ccccc3)CS[C@H]12)c1csc(N)n1)C(=O)O [Ceftazidime]	–	–	–	–	–	–	–	–	–	Minimum biofilm dispersal concentration [12]: >512 µg/mL
